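In this assay, cells in 96-well plates receive the compound at five concentrations for 48 hours. Endpoints are linearly interpolated between the surrounding concentrations. At the GI50, growth is halved. TGI: total growth inhibition.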
Assays:
Assay in all cases: NCI tumour cell line growth inhibition, 48 h
HT29 colon = system: HT29 colon
RPMI-8226 leukemia = system: RPMI-8226 leukemia
UACC-257 melanoma = system: UACC-257 melanoma
UO-31 renal = system: UO-31 renal
ACHN renal = system: ACHN renal
NCI-H522 lung = system: NCI-H522 lung
MALME-3M melanoma = system: MALME-3M melanoma
OVCAR-4 ovarian = system: OVCAR-4 ovarian
CAKI-1 renal = system: CAKI-1 renal
SK-MEL-5 melanoma = system: SK-MEL-5 melanoma

COc1ccc(/C=C/c2c(C(=O)/C=C/c3ccccc3)c(C)nc3ccccc23)cc1
GI50 (HT29 colon): 2.4 µM | TGI (HT29 colon): > 100 µM | GI50 (RPMI-8226 leukemia): 1.74 µM | TGI (RPMI-8226 leukemia): 5.54 µM | GI50 (UACC-257 melanoma): 1.7 µM | TGI (UACC-257 melanoma): 3.21 µM | GI50 (UO-31 renal): 1.28 µM | TGI (UO-31 renal): 2.54 µM | GI50 (ACHN renal): 1.68 µM | TGI (ACHN renal): 3.1 µM | GI50 (NCI-H522 lung): 1.72 µM | TGI (NCI-H522 lung): 4.83 µM | GI50 (MALME-3M melanoma): 1.74 µM | TGI (MALME-3M melanoma): 3.2 µM | GI50 (OVCAR-4 ovarian): 2.27 µM | TGI (OVCAR-4 ovarian): 6.85 µM | GI50 (CAKI-1 renal): 1.41 µM | TGI (CAKI-1 renal): 2.82 µM | GI50 (SK-MEL-5 melanoma): 1.73 µM | TGI (SK-MEL-5 melanoma): 3.13 µM

CN1CCc2nc(N)nc(-c3nc(N)nc4c3CN(C)CC4)c2C1
TGI (HT29 colon): > 100 µM | TGI (RPMI-8226 leukemia): > 100 µM | TGI (UACC-257 melanoma): > 100 µM | TGI (UO-31 renal): > 100 µM | TGI (ACHN renal): > 100 µM | TGI (NCI-H522 lung): > 100 µM | TGI (MALME-3M melanoma): > 100 µM | TGI (OVCAR-4 ovarian): > 100 µM | TGI (CAKI-1 renal): > 100 µM | TGI (SK-MEL-5 melanoma): > 100 µM

CCOC(=O)N[C@@H]1C(CC(=O)OC)O[C@H]2OC(C)(C)O[C@H]21 (stereo partly drawn)
TGI (HT29 colon): > 100 µM | TGI (RPMI-8226 leukemia): > 100 µM | TGI (UACC-257 melanoma): > 100 µM | TGI (UO-31 renal): > 100 µM | TGI (ACHN renal): > 100 µM | TGI (MALME-3M melanoma): > 100 µM | TGI (OVCAR-4 ovarian): > 100 µM | TGI (CAKI-1 renal): > 100 µM | TGI (SK-MEL-5 melanoma): > 100 µM

CC(=O)O[C@H]1CCC2[C@@H]3CC[C@]4(C)CC(=O)C=C[C@]4(C)C3CC[C@@]21C (stereo partly drawn)
TGI (HT29 colon): 32.8 µM | TGI (RPMI-8226 leukemia): 61.5 µM | TGI (UACC-257 melanoma): 43.9 µM | TGI (UO-31 renal): > 100 µM | TGI (ACHN renal): > 100 µM | TGI (NCI-H522 lung): 76.9 µM | TGI (MALME-3M melanoma): 34.3 µM | TGI (OVCAR-4 ovarian): 31.8 µM | TGI (CAKI-1 renal): > 100 µM | TGI (SK-MEL-5 melanoma): 28.3 µM

Cc1cc(C(=O)Nc2ccc3cc(CN4CCOCC4)ccc3n2)c(C)n1-c1ccccc1
GI50 (HT29 colon): 2.71 µM | TGI (HT29 colon): > 100 µM | GI50 (RPMI-8226 leukemia): 0.822 µM | TGI (RPMI-8226 leukemia): 3.73 µM | GI50 (UACC-257 melanoma): 1.27 µM | TGI (UACC-257 melanoma): 4.07 µM | GI50 (UO-31 renal): 2.24 µM | TGI (UO-31 renal): 33.5 µM | GI50 (ACHN renal): 2.6 µM | TGI (ACHN renal): 42.3 µM | GI50 (NCI-H522 lung): 2.67 µM | TGI (NCI-H522 lung): 9.38 µM | GI50 (MALME-3M melanoma): 1.89 µM | TGI (MALME-3M melanoma): 8.66 µM | GI50 (OVCAR-4 ovarian): 1.24 µM | TGI (OVCAR-4 ovarian): > 23.8 µM | GI50 (CAKI-1 renal): 1.5 µM | TGI (CAKI-1 renal): 16.7 µM | GI50 (SK-MEL-5 melanoma): 0.202 µM | TGI (SK-MEL-5 melanoma): 0.799 µM

COCC[C@H]1CCC/C=C/[C@@H]2C[C@H](O)C[C@H]2[C@H](O)/C=C/C(=O)O1
GI50 (HT29 colon): 0.0351 µM | TGI (HT29 colon): 0.227 µM | GI50 (RPMI-8226 leukemia): 0.284 µM | GI50 (UACC-257 melanoma): 0.035 µM | GI50 (UO-31 renal): 0.0563 µM | GI50 (ACHN renal): 0.319 µM | TGI (ACHN renal): > 100 µM | GI50 (NCI-H522 lung): 0.21 µM | TGI (NCI-H522 lung): 0.557 µM | GI50 (MALME-3M melanoma): 0.0344 µM | TGI (MALME-3M melanoma): 0.228 µM | GI50 (OVCAR-4 ovarian): 0.0528 µM | GI50 (CAKI-1 renal): 0.36 µM | GI50 (SK-MEL-5 melanoma): 0.0172 µM | TGI (SK-MEL-5 melanoma): 0.0319 µM

CCCCNC1CCCCC[C@H]1O (stereo partly drawn)
TGI (HT29 colon): > 100 µM | TGI (RPMI-8226 leukemia): > 100 µM | TGI (UACC-257 melanoma): > 100 µM | TGI (UO-31 renal): > 100 µM | TGI (ACHN renal): > 100 µM | TGI (NCI-H522 lung): > 100 µM | TGI (OVCAR-4 ovarian): > 100 µM | TGI (CAKI-1 renal): > 100 µM | TGI (SK-MEL-5 melanoma): > 100 µM

CCOC(=O)/C(C)=C(/O)C(=O)OCC
TGI (HT29 colon): > 100 µM | TGI (RPMI-8226 leukemia): > 100 µM | TGI (UACC-257 melanoma): > 100 µM | TGI (UO-31 renal): > 100 µM | TGI (ACHN renal): > 100 µM | TGI (NCI-H522 lung): > 100 µM | TGI (MALME-3M melanoma): > 100 µM | TGI (OVCAR-4 ovarian): > 100 µM | TGI (CAKI-1 renal): > 100 µM | TGI (SK-MEL-5 melanoma): > 100 µM
